For five compounds, Activity and EC50 results are on record in ChEMBL document CHEMBL3400029, “Xanthones from the roots of Maclura cochinchinensis var. gerontogea and their retinoic acid receptor-α agonistic activity” (Bioorg Med Chem Lett, 2015).

Activity calls are given as the source filed them. The calls are words filed in the database; no cut-off is given here.

As usually defined, the EC50 is the concentration at which the effect is half-maximal.

Holding throughout (type): cell-based
Data set [1] concerns the target T1, Retinoic acid receptor alpha (Homo sapiens) (UniProt P10276).
T1 sequence (whole entry): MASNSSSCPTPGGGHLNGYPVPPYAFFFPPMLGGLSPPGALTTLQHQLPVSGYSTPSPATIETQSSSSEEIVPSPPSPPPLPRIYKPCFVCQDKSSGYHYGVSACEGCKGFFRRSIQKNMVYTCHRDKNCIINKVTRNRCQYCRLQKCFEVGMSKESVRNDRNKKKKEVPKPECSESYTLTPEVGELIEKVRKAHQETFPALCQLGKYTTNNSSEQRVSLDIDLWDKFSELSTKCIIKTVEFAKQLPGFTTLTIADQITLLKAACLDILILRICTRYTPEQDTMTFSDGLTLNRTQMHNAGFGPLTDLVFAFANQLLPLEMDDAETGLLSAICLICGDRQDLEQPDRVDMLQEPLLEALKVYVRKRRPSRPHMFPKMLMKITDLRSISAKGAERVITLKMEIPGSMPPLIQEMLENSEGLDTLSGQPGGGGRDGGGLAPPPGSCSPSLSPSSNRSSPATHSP
Kind of data set: Agonist activity at RARalpha (unknown origin) expressed in HEK293 cells assessed as transcriptional activation at 1 uM after 48 hrs by luciferase reporter gene assay.

Data set [2] concerns the target T1, Retinoic acid receptor alpha (Homo sapiens). As to the kind of experiment: (§1) Agonist activity at RARalpha (unknown origin) expressed in HEK293 cells assessed as transcriptional activation after 48 hrs by luciferase reporter gene assay. A general note: Reporter assays use an easily measured gene product as a stand-in for the process of interest.
Data set [3] deals with T2, Retinoic acid receptor alpha (Homo sapiens, UniProt P10276).
T2 sequence (P10276 whole entry): T1 sequence (whole entry)
The data set is described as §1.

The target of data set [4] is T2, Retinoic acid receptor alpha. Kind of data set: Agonist activity at RARalpha (unknown origin) expressed in HEK293 cells assessed as transcriptional activation after 48 hrs by luciferase reporter gene assay in presence of bexarotene.
The subject of the next data set is HEK293. As to the kind of experiment: Cytotoxicity against HEK293 cells at > 1 uM. Conditions: human.

For `CC1(C)C=Cc2c(cc(O)c3c(=O)c4c5c(ccc4oc23)OC(C(C)(C)O)C5)O1` (stereo not drawn), in data set [1], the outcome was Active. For the same compound, the Activity result in data set [2] is “Dose-dependent effect”. The EC50 in data set [3] amounted to 65 nM; in data set [4], 170 nM.

`CC(C)=CCc1c(O)ccc2oc3c4c(cc(O)c3c(=O)c12)OC(C)(C)C=C4`: in data set [1], the outcome was Active. The Activity result in data set [2] is “Dose-dependent effect”. For the same compound, the EC50 in data set [3] was 110 nM; in data set [4], 200 nM.

For the compound `CC1Oc2cc3oc4c(O)c5c(cc4c(=O)c3c(O)c2C1(C)C)C=CC(C)(C)O5` (stereo not drawn) [GERONTOXANTHONE A], the result in data set [1] was Active. The Activity result in data set [2] was “Dose-dependent effect”. For the same compound, the EC50 in data set [3] is 170 nM; in data set [4], 200 nM.

With `C=CC(C)(C)c1c(O)cc2oc3c(O)c4c(cc3c(=O)c2c1O)C=CC(C)(C)O4` [GERONTOXANTHONE B], the outcome in data set [1] was Active. In data set [2], the Activity entry was “Dose-dependent effect”. The EC50 in data set [3] is 1700 nM; in data set [4] it was 2000 nM.

In the case of `CC(C)=CCc1c(O)cc(O)c2c(=O)c3c(CC=C(C)C)c(O)ccc3oc12` [GERONTOXANTHONE H], the outcome in data set [1] was Active. Also, the Activity entry with HEK293 was “Toxic”.
